Each structure is given as a SMILES string. Where a name gives a salt, the structure may show the parent alone. Where only a bound is given, the exact number is not on record here.

T1 sequence (Q13315 whole entry): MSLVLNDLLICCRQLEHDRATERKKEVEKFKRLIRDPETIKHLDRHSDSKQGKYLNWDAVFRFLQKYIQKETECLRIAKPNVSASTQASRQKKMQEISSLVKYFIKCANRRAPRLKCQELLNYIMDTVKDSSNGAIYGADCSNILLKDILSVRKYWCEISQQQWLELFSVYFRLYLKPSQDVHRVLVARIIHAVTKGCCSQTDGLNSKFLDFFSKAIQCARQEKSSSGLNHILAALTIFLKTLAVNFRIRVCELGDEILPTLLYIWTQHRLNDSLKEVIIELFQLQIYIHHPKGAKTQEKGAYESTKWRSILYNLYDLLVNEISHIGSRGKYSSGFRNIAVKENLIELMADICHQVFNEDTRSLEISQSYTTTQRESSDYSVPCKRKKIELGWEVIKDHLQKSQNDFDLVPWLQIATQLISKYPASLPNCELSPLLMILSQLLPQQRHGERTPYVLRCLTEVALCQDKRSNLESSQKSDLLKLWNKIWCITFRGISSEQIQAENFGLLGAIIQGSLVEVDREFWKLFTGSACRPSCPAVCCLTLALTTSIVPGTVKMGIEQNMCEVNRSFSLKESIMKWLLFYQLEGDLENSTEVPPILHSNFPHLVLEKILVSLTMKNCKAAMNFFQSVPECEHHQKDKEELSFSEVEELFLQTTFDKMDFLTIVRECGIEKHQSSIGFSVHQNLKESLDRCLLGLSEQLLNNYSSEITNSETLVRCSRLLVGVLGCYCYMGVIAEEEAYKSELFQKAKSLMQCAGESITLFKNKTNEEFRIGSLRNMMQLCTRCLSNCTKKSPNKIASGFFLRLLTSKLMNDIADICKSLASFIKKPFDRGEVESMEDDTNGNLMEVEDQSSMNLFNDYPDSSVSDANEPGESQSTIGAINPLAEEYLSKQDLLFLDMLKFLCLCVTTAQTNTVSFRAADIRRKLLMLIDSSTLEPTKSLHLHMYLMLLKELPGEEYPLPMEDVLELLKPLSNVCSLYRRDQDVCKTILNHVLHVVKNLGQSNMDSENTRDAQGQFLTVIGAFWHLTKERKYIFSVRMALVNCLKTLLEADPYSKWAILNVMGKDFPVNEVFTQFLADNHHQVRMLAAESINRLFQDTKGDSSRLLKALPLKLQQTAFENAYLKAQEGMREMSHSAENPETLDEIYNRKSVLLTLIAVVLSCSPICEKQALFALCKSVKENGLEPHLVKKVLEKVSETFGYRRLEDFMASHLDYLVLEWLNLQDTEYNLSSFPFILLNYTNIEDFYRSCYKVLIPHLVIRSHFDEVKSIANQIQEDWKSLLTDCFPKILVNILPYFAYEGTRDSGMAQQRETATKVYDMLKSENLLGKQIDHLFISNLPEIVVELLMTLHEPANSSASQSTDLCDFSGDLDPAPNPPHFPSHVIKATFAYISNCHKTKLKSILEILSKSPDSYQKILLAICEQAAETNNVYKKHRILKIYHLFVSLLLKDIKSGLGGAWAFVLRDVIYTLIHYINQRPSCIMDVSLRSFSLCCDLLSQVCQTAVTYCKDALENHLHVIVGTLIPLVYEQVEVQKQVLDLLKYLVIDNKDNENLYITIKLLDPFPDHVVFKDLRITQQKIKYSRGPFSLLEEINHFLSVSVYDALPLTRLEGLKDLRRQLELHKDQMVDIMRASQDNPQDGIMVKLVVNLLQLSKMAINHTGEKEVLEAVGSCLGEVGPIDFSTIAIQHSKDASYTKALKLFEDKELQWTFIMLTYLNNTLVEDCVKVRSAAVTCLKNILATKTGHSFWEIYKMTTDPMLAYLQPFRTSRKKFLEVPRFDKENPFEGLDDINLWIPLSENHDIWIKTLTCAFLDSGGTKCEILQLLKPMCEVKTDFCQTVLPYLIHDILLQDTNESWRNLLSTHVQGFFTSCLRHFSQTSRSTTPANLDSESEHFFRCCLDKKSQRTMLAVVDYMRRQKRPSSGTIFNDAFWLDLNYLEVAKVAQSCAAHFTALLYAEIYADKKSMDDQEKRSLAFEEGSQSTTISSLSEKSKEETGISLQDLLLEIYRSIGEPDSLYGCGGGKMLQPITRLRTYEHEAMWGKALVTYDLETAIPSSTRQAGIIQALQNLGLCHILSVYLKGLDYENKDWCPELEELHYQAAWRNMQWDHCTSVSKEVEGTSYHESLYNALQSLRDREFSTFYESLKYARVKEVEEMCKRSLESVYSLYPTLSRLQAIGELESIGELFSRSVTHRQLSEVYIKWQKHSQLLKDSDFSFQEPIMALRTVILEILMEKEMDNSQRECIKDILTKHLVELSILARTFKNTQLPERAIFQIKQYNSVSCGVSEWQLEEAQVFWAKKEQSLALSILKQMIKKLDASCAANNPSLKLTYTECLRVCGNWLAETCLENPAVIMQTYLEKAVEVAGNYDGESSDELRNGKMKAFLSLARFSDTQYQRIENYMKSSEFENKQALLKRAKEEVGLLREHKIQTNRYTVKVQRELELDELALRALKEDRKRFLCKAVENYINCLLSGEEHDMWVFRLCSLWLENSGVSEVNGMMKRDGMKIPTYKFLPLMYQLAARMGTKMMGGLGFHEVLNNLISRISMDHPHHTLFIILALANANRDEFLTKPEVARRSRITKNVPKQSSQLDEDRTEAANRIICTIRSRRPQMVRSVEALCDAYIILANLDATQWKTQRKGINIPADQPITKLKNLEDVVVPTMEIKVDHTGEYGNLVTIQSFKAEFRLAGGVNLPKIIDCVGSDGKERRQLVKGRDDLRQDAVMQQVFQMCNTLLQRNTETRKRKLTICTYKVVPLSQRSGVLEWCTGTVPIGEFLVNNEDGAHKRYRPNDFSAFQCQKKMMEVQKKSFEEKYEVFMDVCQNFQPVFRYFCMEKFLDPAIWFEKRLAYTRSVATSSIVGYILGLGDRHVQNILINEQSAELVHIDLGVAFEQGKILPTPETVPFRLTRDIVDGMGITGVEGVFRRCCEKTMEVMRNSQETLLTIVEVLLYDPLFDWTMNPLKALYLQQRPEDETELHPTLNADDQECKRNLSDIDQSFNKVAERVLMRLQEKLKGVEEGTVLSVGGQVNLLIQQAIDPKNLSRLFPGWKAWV

The experiment has as its target T1, ATM (Homo sapiens, UniProt Q13315).
T1 construct: ATM protein was immunoprecipitated from HeLa cell nuclear extract; endogenous in cells; host or cells: HeLa cell nuclear extract (immunoprecipitate)
Description: In vitro ATM inhibition assay (phosphorylation of GSTp53N66 on serine 15). It is filed as biochemical. The method, then:
In vitro ATM inhibition Assays
In order to assess the inhibitory action of the compounds against ATM in vitro, the following assay was used to determine IC50 values.
ATM protein was immunoprecipitated from HeLa cell nuclear extract using rabbit polyclonal anti-sera raised to the C-terminal ˜500 amino-acid residues of the human ATM protein. The immunoprecipitation was performed according to the methodology described by Banin, S. et al. (1998). 10 μl of immunoprecipitated ATM in Buffer C (50 mM Hepes, pH 7.4, 6 mM MgCl2, 150 mM NaCl, 0.1 mM sodium orthovanadate, 4 mM MnCl2, 0.1 mM dithiothreitol, 10% glycerol) was added to 32.5 μl of buffer C containing 1 μg of the ATM substrate GSTp53N66 in a V-bottomed 96 well polypropylene plate. The GSTp53N66 substrate is the amino terminal 66 amino acid residues of human wild type p53 fused to glutathione S-transferase. ATM phosphorylates p53 on the residue serine 15 (Banin, S. et al. (1998)). Varying concentrations of inhibitor were then added. […] After 10 minutes of incubation at 37° C., the reactions were initiated by the addition of 5 μl of 500 μM Na-ATP. After 1 hour with shaking at 37° C., 150 μl of phosphate buffered saline (PBS) was added to the reaction and the plate centrifuged at 1500 rpm for 10 minutes. 5 μl of the reaction was then transferred to a 96 well opaque white plate containing 45 μl of PBS to allow the GSTp53N66 substrate to bind to the plate wells. The plate was covered and incubated at room temperature for 1 hour with shaking before discarding the contents. The plate wells were washed twice by the addition of PBS prior to the addition of 3% (w/v) bovine serum albumin (BSA) in PBS. The plate was incubated at room temperature for 1 hour with shaking before discarding the contents and washing twice with PBS. To the wells, 50 μl of a 1:10,000 dilution of primary phosphoserine-15 antibody (Cell Signaling Technology, #9284L) in 3% BSA/PBS was added to detect the phosphorylation event on the serine 15 residue of p53 elicited by the ATM kinase. After 1 hour of incubation at room temperature with shaking, the wells were washed four times with PBS prior to the addition of an anti-rabbit HRP conjugated secondary antibody (Pierce, 31462) with shaking for 1 hour at room temperature. The wells were then washed four times with PBS before the addition of chemiluminescence reagent (NEN Renaissance, NEL105). The plate was then shaken briefly, covered with a transparent plate seal and transferred to a TopCount NXT for chemiluminescent counting. Counts per second, following a one second counting time, were recorded for each reaction.
The enzyme activity for each compound is then calculated using the following equation: […]
For `O=C(NN1CCOCC1)c1ccc2c(c1)Sc1cccc(-c3cc(=O)cc(N4CCOCC4)o3)c1S2` [Compound 165], the IC50 (in general, the midpoint of a concentration-inhibition curve) was below 200 nM.

With `CC(=O)Oc1cccc(C(=O)Nc2ccc(-c3cc(=O)cc(N4CCOCC4)o3)c3c2Cc2ccccc2S3)c1C` [Compound 123], the IC50 is below 200 nM. The molecule `COc1ccc(CNCCC(=O)Nc2ccc3c(c2)Cc2cccc(-c4cc(=O)cc(N5CCOCC5)o4)c2S3)cc1` [Compound 81] came in with an IC50 below 200 nM. The result for `O=c1cc(-c2cccc3c2Oc2ccccc2S3)oc(N2CCOCC2)c1` [Compound 5, 2-Phenoxathiin-4-yl-6-morpholin-4-yl-pyran-4-one] reads below 200 nM; that for `O=C(O)c1ccc2c(c1)Sc1cccc(-c3cc(=O)cc(N4CCOCC4)o3)c1S2` [Compound 138, 6-(6-Morpholin-4-yl-4-oxo-4H-pyran-2-yl)-thianthrene-2-carboxylate sodium salt], below 200 nM. Next, `COCCN(CCOC)CCC(=O)Nc1ccc2c(c1)Cc1cccc(-c3cc(=O)cc(N4CCOCC4)o3)c1S2` [Compound 73]: below 200 nM; `CNC(=O)c1ccc2c(c1)Sc1cccc(-c3cc(=O)cc(N4CCOCC4)o3)c1S2` [Compound 139]: below 200 nM. Next, `O=C(CCN1CCCC1)Nc1ccc2c(c1)Cc1cccc(-c3cc(=O)cc(N4CCOCC4)o3)c1S2` [Compound 76]: below 200 nM; `O=C(NCCCN1CCOCC1)c1ccc2c(c1)Sc1cccc(-c3cc(=O)cc(N4CCOCC4)o3)c1S2` [Compound 178]: below 200 nM; `CC(C)(C)OC(=O)N1c2ccccc2Sc2c(-c3cc(=O)cc(N4CCOCC4)o3)cccc21` [Compound 134, 4-(6-Morpholin-4-yl-4-oxo-4H-pyran-2-yl)-phenothiazine-10-carboxylic acid tert-butyl ester]: below 200 nM.

Take `COC(=O)CC(=O)Nc1ccc2c(c1)Cc1cccc(-c3cc(=O)cc(N4CCOCC4)o3)c1S2` [Compound 23]: the IC50 was below 200 nM. Next, `CN(C)C(=O)c1ccc2c(c1)Sc1cccc(-c3cc(=O)cc(N4CCOCC4)o3)c1S2` [Compound 140]: below 200 nM; `O=C(Nc1ccc2c(c1)Cc1cccc(-c3cc(=O)cc(N4CCOCC4)o3)c1S2)c1ccno1` [Compound 47]: below 200 nM. Next, `Cc1cc(C(=O)Nc2ccc3c(c2)Cc2cccc(-c4cc(=O)cc(N5CCOCC5)o4)c2S3)no1` [Compound 45]: below 200 nM; `CN1CCCN(CC(=O)Nc2ccc3c(c2)Cc2cccc(-c4cc(=O)cc(N5CCOCC5)o4)c2S3)CC1` [Compound 59]: below 200 nM; `Cc1noc(C)c1C(=O)Nc1ccc2c(c1)Cc1cccc(-c3cc(=O)cc(N4CCOCC4)o3)c1S2` [Compound 33]: below 200 nM. `O=C(Nc1ccc(-c2cc(=O)cc(N3CCOCC3)o2)c2c1Cc1ccccc1S2)c1cccnc1` [Compound 119] registered an IC50 below 200 nM. The result for `O=C(CCSc1ncn[nH]1)Nc1ccc2c(c1)Cc1cccc(-c3cc(=O)cc(N4CCOCC4)o3)c1S2` [Compound 82] reads below 200 nM; that for `CN1CCN(CCC(=O)Nc2ccc3c(c2)Cc2cccc(-c4cc(=O)cc(N5CCOCC5)o4)c2S3)CC1` [Compound 71], below 200 nM; that for `NCC(=O)Nc1ccc2c(c1)Cc1cccc(-c3cc(=O)cc(N4CCOCC4)o3)c1S2` [Compound 66], below 200 nM. The result for `COC[C@@H]1CCCN1NC(=O)c1ccc2c(c1)Sc1cccc(-c3cc(=O)cc(N4CCOCC4)o3)c1S2` [Compound 163] reads below 200 nM. Next, `O=C(O)C(F)(F)C(F)(F)C(=O)Nc1ccc2c(c1)Cc1cccc(-c3cc(=O)cc(N4CCOCC4)o3)c1S2` [Compound 50]: below 200 nM.

Molecule `O=C(CNCCCN1CCOCC1)Nc1ccc2c(c1)Cc1cccc(-c3cc(=O)cc(N4CCOCC4)o3)c1S2` [Compound 62] registered an IC50 below 200 nM. The result for `O=c1cc(-c2ccc(OCCSc3ncn[nH]3)c3c2Cc2ccccc2S3)oc(N2CCOCC2)c1` [Compound 102] reads below 200 nM; that for `O=C(CN1CCCNCC1)Nc1ccc2c(c1)Cc1cccc(-c3cc(=O)cc(N4CCOCC4)o3)c1S2` [Compound 60], below 200 nM; that for `O=C(NCCN1CCCC1)c1ccc2c(c1)Sc1cccc(-c3cc(=O)cc(N4CCOCC4)o3)c1S2` [Compound 167], below 200 nM. Next, `NCCNCC(=O)Nc1ccc2c(c1)Cc1cccc(-c3cc(=O)cc(N4CCOCC4)o3)c1S2` [Compound 57]: below 200 nM. Next, `O=C(CN1CCNCC1)Nc1ccc2c(c1)Cc1cccc(-c3cc(=O)cc(N4CCOCC4)o3)c1S2` [Compound 52]: below 200 nM.

In the case of `O=C(Nc1ccc2c(c1)Cc1cccc(-c3cc(=O)cc(N4CCOCC4)o3)c1S2)C1CCC1` [Compound 32], the IC50 is below 200 nM.

On to `O=C(CCN1CCCCC1)Nc1ccc2c(c1)Cc1cccc(-c3cc(=O)cc(N4CCOCC4)o3)c1S2` [Compound 69], for which the IC50 was below 200 nM. Next, `COC(=O)c1ccc2c(c1)Sc1cccc(-c3cc(=O)cc(N4CCOCC4)o3)c1S2` [Compound 137, 6-(6-Morpholin-4-yl-4-oxo-4H-pyran-2-yl)-thianthrene-2-carboxylic acid methyl ester]: below 200 nM. In the case of `O=C(Nc1ccc(-c2cc(=O)cc(N3CCOCC3)o2)c2c1Cc1ccccc1S2)c1ccno1` [Compound 126], the IC50 was below 200 nM. The result for `O=C(NCC1CCCO1)c1ccc2c(c1)Sc1cccc(-c3cc(=O)cc(N4CCOCC4)o3)c1S2` (stereo not drawn) [Compound 149] reads below 200 nM; that for `O=C(Nc1ccc(-c2cc(=O)cc(N3CCOCC3)o2)c2c1Cc1ccccc1S2)c1ccc[nH]1` [Compound 128], below 200 nM; that for `O=c1cc(-c2cccc3c2Sc2ccccc2N3)oc(N2CCOCC2)c1` [Compound 135, 2-Morpholin-4-yl-6-(10H-phenothiazin-4-yl)-pyran-4-one], below 200 nM. `COCC(=O)Nc1ccc2c(c1)Cc1cccc(-c3cc(=O)cc(N4CCOCC4)o3)c1S2` [Compound 22] came in with an IC50 below 200 nM. `CN(C)c1ccc(CNC(=O)c2ccc3c(c2)Sc2cccc(-c4cc(=O)cc(N5CCOCC5)o4)c2S3)cc1` [Compound 169] had an IC50 below 200 nM.

Molecule `O=C(CN1CCCCCC1)Nc1ccc2c(c1)Cc1cccc(-c3cc(=O)cc(N4CCOCC4)o3)c1S2` [Compound 61] displayed an IC50 below 200 nM. Next, `O=C(CNCCO)Nc1ccc2c(c1)Cc1cccc(-c3cc(=O)cc(N4CCOCC4)o3)c1S2` [Compound 56]: below 200 nM. As for `O=C(CN1CCCCC1)Nc1ccc2c(c1)Cc1cccc(-c3cc(=O)cc(N4CCOCC4)o3)c1S2` [Compound 51], the IC50 is below 200 nM. Next, `CC1CN(C(=O)c2ccc3c(c2)Sc2cccc(-c4cc(=O)cc(N5CCOCC5)o4)c2S3)CC(C)O1` (stereo not drawn) [Compound 158]: below 200 nM. The result for `CC(C)(C)OC(=O)N1CCN(CCNC(=O)c2ccc3c(c2)Sc2cccc(-c4cc(=O)cc(N5CCOCC5)o4)c2S3)CC1` [Compound 180] reads below 200 nM; that for `COc1ccccc1C(=O)Nc1ccc2c(c1)Cc1cccc(-c3cc(=O)cc(N4CCOCC4)o3)c1S2` [Compound 29], below 200 nM; that for `CC(=O)Oc1ccccc1C(=O)Nc1ccc2c(c1)Cc1cccc(-c3cc(=O)cc(N4CCOCC4)o3)c1S2` [Compound 37], below 200 nM. `O=C(c1ccc2c(c1)Sc1cccc(-c3cc(=O)cc(N4CCOCC4)o3)c1S2)N1CCCCC1` [Compound 157] registered an IC50 below 200 nM. `CN1CCCN(CCC(=O)Nc2ccc3c(c2)Cc2cccc(-c4cc(=O)cc(N5CCOCC5)o4)c2S3)CC1` [Compound 77] showed an IC50 below 200 nM. Next, `O=C(NCCc1ccccn1)c1ccc2c(c1)Sc1cccc(-c3cc(=O)cc(N4CCOCC4)o3)c1S2` [Compound 173]: below 200 nM; `O=C(CNCCN1CCOCC1)Nc1ccc2c(c1)Cc1cccc(-c3cc(=O)cc(N4CCOCC4)o3)c1S2` [Compound 67]: below 200 nM; `O=C(Nc1ccc(-c2cc(=O)cc(N3CCOCC3)o2)c2c1Cc1ccccc1S2)c1ccc2nsnc2c1` [Compound 112]: below 200 nM. The result for `Cn1nc(O)cc1C(=O)Nc1ccc2c(c1)Cc1cccc(-c3cc(=O)cc(N4CCOCC4)o3)c1S2` [Compound 35] reads below 200 nM; that for `O=C(NCC1CC1)c1ccc2c(c1)Sc1cccc(-c3cc(=O)cc(N4CCOCC4)o3)c1S2` [Compound 152], below 200 nM.
